Experimental data published in article PMC12217461 (Antimicrobial Agents and Chemotherapy, 2025).
Where two headings read alike, the source gives them in different places.

How the values were obtained:
IMP-14 D227Y = test: IC50, inhibition of cephalothin hydrolysis; assay type: biochemical; details: crude enzyme extract, 100 µM cephalothin, 3 min pre-incubation; read-out: IC50 against IMP-14 D227Y
Description: (§1) Genes encoding different acquired IMP-like enzymes suspected to be resistant to XER (blaIMP-6, blaIMP-7, blaIMP-10, blaIMP-14, blaIMP-26, blaIMP-34, and blaIMP-59) were amplified by PCR, and corresponding amplicons were cloned into plasmid pUCP24 and expressed in E. coli TOP10. The following recombinant E. coli strains producing IMP-1, IMP-4, IMP-19, and NDM-1 were used from a previous study ([16]). Therefore, site-directed mutagenesis was performed using the Q5 Site-Directed Mutagenesis kit (ref. E0554S, New England Biolabs, Ipswich, MA) to obtain mutants of NDM-1 and IMP-14 in order to test the impact of specific amino-acid substitutions with respect to XER sensitivity. For that purpose, a list of primers was designed and provided as Table S1. […] The nomenclature used in this study was according to the BBL sequence numbering ([52]).
(§2) Cultures of E. coli TOP10 harboring recombinant plasmids and therefore producing the different IMP-like tested were grown overnight at 37°C in 50 mL of lysogeny broth (LB) with gentamicin (50 µg/mL). The bacterial suspension was pelleted, resuspended in 10 mL of 100 mM phosphate buffer (pH 7) supplemented with ZnSO4 (5 µM) for E. coli TOP10 harboring IMPs and then sonicated using a Vibra Cell 75186 sonicator (Thermo Fisher Scientific), followed by centrifugation for 1 h at 11,000 × g and 4°C. The presence of the β-lactamase was monitored using nitrocefin (200 µM). Kinetic measurements were performed at room temperature in 100 mM sodium phosphate (pH 7.0) supplemented with ZnSO4 (5 µM) for IMPs using a UV/visible ULTROSPEC 2100 pro spectrophotometer (Amersham Biosciences, Buckinghamshire, UK). The wavelength and absorption coefficient of cephalothin (262 nm/Ʌ ɛ = −7960 M^−1.cm^−1) were used for all IMPs, and IC50 was determined in triplicate for TAN and XER. Various concentrations of these inhibitors were pre-incubated with the crude extract of the enzyme for 3 min at room temperature to determine the concentrations that reduced the hydrolysis rate of 100 µM of cephalothin by 50% ([54]).

IMP-14 S65G = test: IC50, inhibition of cephalothin hydrolysis; assay type: biochemical; details: crude enzyme extract, 100 µM cephalothin, 3 min pre-incubation; read-out: IC50 against IMP-14 S65G
Description: as §1, §2

IMP-14 H174N = test: IC50, inhibition of cephalothin hydrolysis; assay type: biochemical; details: crude enzyme extract, 100 µM cephalothin, 3 min pre-incubation; read-out: IC50 against IMP-14 H174N
Description: as §1, §2

IMP-14 N233Y = test: IC50, inhibition of cephalothin hydrolysis; assay type: biochemical; details: crude enzyme extract, 100 µM cephalothin, 3 min pre-incubation; read-out: IC50 against IMP-14 N233Y
Description: as §1, §2

IMP-14 N178S = test: IC50, inhibition of cephalothin hydrolysis; assay type: biochemical; details: crude enzyme extract, 100 µM cephalothin, 3 min pre-incubation; read-out: IC50 against IMP-14 N178S
Description: as §1, §2

IMP-59 = IMP-59 (Escherichia coli, UniProt A0A172MB70); test: IC50, inhibition of cephalothin hydrolysis; assay type: biochemical
Description: as §2

IMP-26 = IMP-26 (Klebsiella pneumoniae, UniProt D0V558); test: IC50, inhibition of cephalothin hydrolysis; assay type: biochemical
Description: as §2

IMP-14 = test: IC50, inhibition of cephalothin hydrolysis; assay type: biochemical; details: crude enzyme extract, 100 µM cephalothin, 3 min pre-incubation; read-out: IC50 against IMP-14
Description: as §2

IMP-6 = target: T1, IMP-6 (Serratia marcescens, UniProt P52699, S214G); test: IC50, inhibition of cephalothin hydrolysis; assay type: biochemical; details: crude enzyme extract, 100 µM cephalothin, 3 min pre-incubation; read-out: IC50 against IMP-6
T1 construct: made in house; host or cells: E. coli TOP10, plasmid pUCP24 (crude extract)
Description: as §2

IMP-1 = details: crude enzyme extract, 100 µM cephalothin, 3 min pre-incubation; read-out: IC50 against IMP-1; cited from earlier work
IMP-4 = details: crude enzyme extract, 100 µM cephalothin, 3 min pre-incubation; read-out: IC50 against IMP-4; cited from earlier work
NDM-1 = details: crude enzyme extract, 100 µM cephalothin, 3 min pre-incubation; read-out: IC50 against NDM-1; cited from earlier work
IMP-19 = details: crude enzyme extract, 100 µM cephalothin, 3 min pre-incubation; read-out: IC50 against IMP-19; cited from earlier work
IMP-10 = details: crude enzyme extract, 100 µM cephalothin, 3 min pre-incubation; read-out: IC50 against IMP-10; cited from earlier work

Row | Structure (SMILES) | IC50 (IMP-14 D227Y) [µM] | IC50 (IMP-14 S65G) [µM] | IC50 (IMP-14 H174N) [µM] | IC50 (IMP-14 N233Y) [µM] | IC50 (IMP-14 N178S) [µM] | IC50 (IMP-59; crude enzyme extract, 100 µM cephalothin, 3 min pre-incubation, read-out: IC50 against IMP-59) [µM] | IC50 (IMP-26; crude enzyme extract, 100 µM cephalothin, 3 min pre-incubation, read-out: IC50 against IMP-26) [µM] | IC50 (IMP-14) [µM] | IC50 (IMP-6) [µM] | IC50 (IMP-1) [µM] | IC50 (IMP-4) [µM] | IC50 (NDM-1) [µM] | IC50 (IMP-19) [µM] | IC50 (IMP-10) [µM] | IC50 (IMP-59) [µM] | IC50 (IMP-26) [µM]
1 | NCCN[C@H]1CC[C@H](CC(=O)N[C@H]2Cc3cccc(C(=O)O)c3OB2O)CC1 [taniborbactam] | 204 | > 250 | > 250 | > 250 | > 250 | 7 | > 250 | > 250 | > 250 | > 250 | > 250 | […] | > 250 | > 250 |  | 
2 | O=C(O)c1c(F)ccc2c1OB(O)[C@@H]1C[C@H]21 [xeruborbactam] | 250 | 140 | 182 | 210 | 180 |  |  | > 250 | 180 | 2.7 | 14.7 | […] | 7.5 | 73 | 10.3 | 77
